Consider 17 compounds from patent US8940744B2, “Pyrazolopyrimidine compounds as kinase inhibitors” (Principia Biopharma Inc., priority 2012, dated 2015).

Chain of human recombinant Btk (Q06187 whole entry): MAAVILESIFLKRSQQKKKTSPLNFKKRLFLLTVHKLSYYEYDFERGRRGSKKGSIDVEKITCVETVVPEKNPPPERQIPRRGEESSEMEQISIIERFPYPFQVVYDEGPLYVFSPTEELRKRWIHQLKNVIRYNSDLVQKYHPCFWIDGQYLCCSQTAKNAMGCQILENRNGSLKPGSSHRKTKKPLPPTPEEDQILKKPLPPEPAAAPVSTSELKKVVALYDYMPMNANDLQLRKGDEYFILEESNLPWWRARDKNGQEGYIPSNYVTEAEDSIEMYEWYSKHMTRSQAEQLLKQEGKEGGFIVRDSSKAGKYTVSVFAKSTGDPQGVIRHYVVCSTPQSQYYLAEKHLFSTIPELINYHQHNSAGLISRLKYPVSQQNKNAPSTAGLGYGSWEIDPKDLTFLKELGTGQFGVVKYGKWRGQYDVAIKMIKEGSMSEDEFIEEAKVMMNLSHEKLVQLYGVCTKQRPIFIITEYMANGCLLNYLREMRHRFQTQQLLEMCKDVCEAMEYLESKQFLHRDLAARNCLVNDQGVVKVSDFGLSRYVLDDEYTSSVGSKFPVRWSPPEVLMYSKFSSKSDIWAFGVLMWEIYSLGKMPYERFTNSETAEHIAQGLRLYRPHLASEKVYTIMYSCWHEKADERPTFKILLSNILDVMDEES

One test has as its target human recombinant Btk (Homo sapiens (Human), UniProt Q06187). Nature of the test: Btk Enzymatic Activity Assay (Caliper-based kinase assay). The test is classed as biochemical.
Details: not given
As for the experimental part: A Caliper-based kinase assay (Caliper Life Sciences, Hopkinton, Mass.) was used to measure inhibition of Btk kinase activity of a compound of the present disclosure. […] The reaction was then terminated with EDTA, final concentration 20 mM and the phosphorylated reaction product was quantified on a Caliper Desktop Profiler (Caliper LabChip 3000). […] This value is presented as the IC50.
`CCN1CCN(C(C)(C)C=C(C#N)C(=O)N2CCC[C@H]2Cn2nc(-c3ccc(Oc4ccccc4)cc3F)c3c(N)ncnc32)CC1` [Example 8A, 2-[(2S)-2-[[4-amino-3-(2-fluoro-4-phenoxyphenyl)pyrazolo[3,4-d]pyrimidin-1-yl]-methyl]pyrrolidine-1-carbonyl]-4-methyl-4-(4-ethylpiperazin-1-yl)pent-2-enenitrile]: the half-inhibitory concentration (IC50) turned out to be 0.9 nM. The same measure, in the same setting: in the case of `CN1CCN(C(C)(C)C=C(C#N)C(=O)N2CCC[C@H]2Cn2nc(-c3ccc(Oc4ccccc4)cc3F)c3c(N)ncnc32)CC1` [Example 8, 2-[(2S)-2-[[4-amino-3-(2-fluoro-4-phenoxyphenyl)pyrazolo[3,4-d]pyrimidin-1-yl]-methyl]pyrrolidine-1-carbonyl]-4-methyl-4-(4-methylpiperazin-1-yl)pent-2-enenitrile] it was 3.8 nM; in that of `CC(C)(C=C(C#N)C(=O)N1CCC[C@H]1Cn1nc(-c2ccc(Oc3ccccc3)cc2F)c2c(N)ncnc21)N1CC2(COC2)C1` [Example 19a, (S)-2-(2-((4-amino-3-(2-fluoro-4-phenoxyphenyl)-1H-pyrazolo[3,4-d]pyrimidin-1-yl)methyl)pyrrolidine-1-carbonyl)-4-methyl-4-(2-oxa-6-azaspiro[3.3]heptan-6-yl)pent-2-enenitrile], 5.6 nM.

The same test, now with this note: human recombinant Btk 0.5 nM, ATP 16 μM, room temperature 3 h.
As to `CC(C)(/C=C(\C#N)C(=O)N1CCC[C@@H](n2nc(-c3ccc(Oc4ccccc4)cc3F)c3c(N)ncnc32)C1)N1CC2(COC2)C1` [Example 19, 2-[(3R)-3-[4-amino-3-(2-fluoro-4-phenoxy-phenyl)pyrazolo[3,4-d]pyrimidin-1-yl]piperidine-1-carbonyl]-4-methyl-4-(6-oxa-2-azaspiro[3.3]heptan-2-yl)pent-2-enenitrile], the IC50 amounted to 1.5 nM.

On to `CN(C1COC1)C(C)(C)C=C(C#N)C(=O)N1CCC[C@@H](n2nc(-c3ccc(Oc4ccccc4)cc3F)c3c(N)ncnc32)C1` [Example 13, 2-[(3R)-3-[4-amino-3-(2-fluoro-4-phenoxy-phenyl)pyrazolo[3,4-d]pyrimidin-1-yl]piperidine-1-carbonyl]-4-methyl-4-[methyl(oxetan-3-yl)amino]pent-2-enenitrile], for which the IC50 stood at 0.6 nM. Still for that read-out and setting: the value for `CC(C)N1CCN(C(C)(C)C=C(C#N)C(=O)N2CCC[C@@H](n3nc(-c4ccc(Oc5ccccc5)cc4F)c4c(N)ncnc43)C2)CC1` [Example 21, (R)-2-(3-(4-amino-3-(2-fluoro-4-phenoxyphenyl)-1H-pyrazolo[3,4-d]pyrimidin-1-yl)piperidine-1-carbonyl)-4-(4-isopropylpiperazin-1-yl)-4-methylpent-2-enenitrile] was 0.7 nM; that for `CC(C)(C=C(C#N)C(=O)N1CCC1Cn1nc(-c2ccc(Oc3ccccc3)cc2F)c2c(N)ncnc21)N1CCOCC1` (stereo not shown) [Example 15, 2-[2-[[4-amino-3-(2-fluoro-4-phenoxy-phenyl)pyrazolo[3,4-d]pyrimidin-1-yl]methyl]azetidine-1-carbonyl]-4-methyl-4-morpholino-pent-2-enenitrile] was 4.1 nM. The same measure, in the same setting: in the case of `CC(C)(C=C(C#N)C(=O)N1CCC[C@@H](n2nc(-c3ccc(Oc4ccccc4)cc3F)c3c(N)ncnc32)C1)N1CCC(O)CC1` [Example 18, (R)-2-(3-(4-amino-3-(2-fluoro-4-phenoxyphenyl)-1H-pyrazolo[3,4-d]pyrimidin-1-yl)piperidine-1-carbonyl)-4-(4-hydroxypiperidin-1-yl)-4-methylpent-2-enenitrile] it was 0.7 nM; in that of `CC(C)(C=C(C#N)C(=O)N1CCC[C@H]1Cn1nc(-c2ccc(Oc3ccccc3)cc2F)c2c(N)ncnc21)CN1CCOCC1` [Example 30, (S)-2-(2-((4-amino-3-(2-fluoro-4-phenoxyphenyl)-1H-pyrazolo[3,4-d]pyrimidin-1-yl)methyl)pyrrolidine-1-carbonyl)-4,4-dimethyl-5-morpholinopent-2-enenitrile], 5.2 nM. On the same count and under the same terms, in the case of `CCN1CCN(C(C)(C)C=C(C#N)C(=O)N2CCC[C@@H](n3nc(-c4ccc(Oc5ccccc5)cc4F)c4c(N)ncnc43)C2)CC1` [Example 20, 2-[(3R)-3-[4-amino-3-(2-fluoro-4-phenoxy-phenyl)pyrazolo[3,4-d]-pyrimidin-1-yl]piperidine-1-carbonyl]-4-(4-ethylpiperazin-1-yl)-4-methyl-pent-2-enenitrile] it was 0.9 nM; in that of `CCN(C1COC1)C(C)(C)C=C(C#N)C(=O)N1CCC[C@@H](n2nc(-c3ccc(Oc4ccccc4)cc3F)c3c(N)ncnc32)C1` [Example 13a, (R)-2-(3-(4-amino-3-(2-fluoro-4-phenoxyphenyl)-1H-pyrazolo[3,4-d]pyrimidin-1-yl)piperidine-1-carbonyl)-4-(ethyl(oxetan-3-yl)amino)-4-methylpent-2-enenitrile], 0.9 nM. On to `CN(C1COC1)C(C)(C)C=C(C#N)C(=O)N1CCC[C@H]1Cn1nc(-c2ccc(Oc3ccccc3)cc2F)c2c(N)ncnc21` [Example 10, 2-[(2S)-2-[[4-amino-3-(2-fluoro-4-phenoxy-phenyl)pyrazolo[3,4-d]pyrimidin-1-yl]methyl]pyrrolidine-1-carbonyl]-4-methyl-4-[methyl(oxetan-3-yl)amino]pent-2-enenitrile], for which the IC50 stood at 2.1 nM. The same measure, in the same setting: in the case of `CC(C)(C=C(C#N)C(=O)N1CCC[C@H]1Cn1nc(-c2ccc(Oc3ccccc3)cc2F)c2c(N)ncnc21)N1CCNCC1` [Example 9, 2-[(2S)-2-[[4-amino-3-(2-fluoro-4-phenoxy-phenyl)pyrazolo[3,4-d]pyrimidin-1-yl]methyl]pyrrolidine-1-carbonyl]-4-methyl-4-piperazin-1-yl-pent-2-enenitrile] it was 4.7 nM; in that of `CC(C)(C=C(C#N)C(=O)N1CCC[C@@H](n2nc(-c3ccc(Oc4ccccc4)cc3F)c3c(N)ncnc32)C1)N1CCN(S(C)(=O)=O)CC1` [Example 25, (R)-2-(3-(4-amino-3-(2-fluoro-4-phenoxyphenyl)-1H-pyrazolo[3,4-d]pyrimidin-1-yl)piperidine-1-carbonyl)-4-methyl-4-(4-(methylsulfonyl)piperazin-1-yl)pent-2-enenitrile], 1.4 nM.

In the case of `CC(C)(C=C(C#N)C(=O)N1CCC[C@H]1Cn1nc(-c2ccc(Oc3ccccc3)cc2F)c2c(N)ncnc21)N1CCCC1` [Example 5, (S)-2-(2-((4-amino-3-(2-fluoro-4-phenoxyphenyl)-1H-pyrazolo[3,4-d]-pyrimidin-1-yl)-methyl)pyrrolidine-1-carbonyl)-4-methyl-4-(pyrrolidin-1-yl)pent-2-enenitrile], the IC50 came to 1.9 nM. On the same count and under the same terms, the value for `CCN1CCN(C(C)(C)C=C(C#N)C(=O)N2CCC[C@@H](n3nc(-c4ccc(Oc5ccccc5)cc4F)c4c(N)ncnc43)C2)CC1=O` [Example 34, (R)-2-(3-(4-amino-3-(2-fluoro-4-phenoxyphenyl)-1H-pyrazolo[3,4-d]pyrimidin-1-yl)piperidine-1-carbonyl)-4-(4-ethyl-3-oxopiperazin-1-yl)-4-methylpent-2-enenitrile] was 1.3 nM. The same measure, in the same setting: the value for `CC(C)(C=C(C#N)C(=O)N1CCC[C@@H](n2nc(-c3ccc(Oc4ccccc4)cc3F)c3c(N)ncnc32)C1)N1CC(O)C1` [Example 7, 2-((R)-3-(4-amino-3-(2-fluoro-4-phenoxyphenyl)-1H-pyrazolo[3,4-d]pyrimidin-1-yl)piperidine-1-carbonyl)-4-(3-hydroxyazetidin-1-yl)-4-methylpent-2-enenitrile] was 0.9 nM.

The target of the next test is protein target (Homo sapiens (Human), UniProt Q06187). Nature of the test: Reversibility of binding (compound in solution before and after target perturbation, HPLC-MS/MS). To be noted: after 5 M guanidine hydrochloride denaturation and trypsin digestion. As for the experimental part: The following approach was developed to differentiate compounds that form irreversible covalent bond with their targets, such as non-cyano containing acrylamide compounds, from compound that form reversible covalent bond i.e., compounds and/or pharmaceutically acceptable salts of the present disclosure. […] The reactions were then treated with perturbations including both denaturation with 5 M guanidine hydrochloride and digestion with trypsin, disrupting proper folding of the target. […] The concentration of compound in solution was assessed both preceding and following perturbation using high performance liquid chromatography (HPLC) coupled to tandem mass spectrometry.
Chain of protein target (Q06187 whole entry): as above
With `CN(C1COC1)C(C)(C)C=C(C#N)C(=O)N1CCC[C@H]1Cn1nc(-c2ccc(Oc3ccccc3)cc2F)c2c(N)ncnc21` [Example 10, 2-[(2S)-2-[[4-amino-3-(2-fluoro-4-phenoxy-phenyl)pyrazolo[3,4-d]pyrimidin-1-yl]methyl]pyrrolidine-1-carbonyl]-4-methyl-4-[methyl(oxetan-3-yl)amino]pent-2-enenitrile], the “Compound in solution in the denatured or digested state?” value is listed as “yes”.

The test is the same for the next values; noted with them: native (folded) target, target in excess of compound.
Turning to `CN(C1COC1)C(C)(C)C=C(C#N)C(=O)N1CCC[C@H]1Cn1nc(-c2ccc(Oc3ccccc3)cc2F)c2c(N)ncnc21` [Example 10, 2-[(2S)-2-[[4-amino-3-(2-fluoro-4-phenoxy-phenyl)pyrazolo[3,4-d]pyrimidin-1-yl]methyl]pyrrolidine-1-carbonyl]-4-methyl-4-[methyl(oxetan-3-yl)amino]pent-2-enenitrile], the “Compound in solution in the native state?” value is reported as “no”.
